Test results published in patent US20220233743A1, “WOUND CLOSURE ENHANCEMENT METHODS AND MATERIALS VIA MANIPULATION OR AUGMENTATION OF LIPIN-1” (Board of Supervisors of Louisiana State University and …, priority 2019, published 2022).

Key:
Format in all cases: cell-based, mouse
BMDMs [1] = assay: Mitochondrial bioenergetics, Seahorse OCR after IL-4
Procedure: BMDMs collected from lipin-1^mEnzyKO, lipin-1^mKO, and littermate control mice were seeded at a density of 150,000 cells per well on XF24 cell culture microplates and allowed to incubate for 4 h. Experiments were conducted in XF assay medium containing 25 mM glucose, 2 mM 1-glutamine, and 1 mM sodium pyruvate and analyzed using a Seahorse XFe 24 extracellular flux analyzer (Agilent Technologies). Where indicated, the following were injected: ATP-synthesis inhibitor oligomycin (Oligo; 1 μM), carbonyl cyanide 4-(trifluoromethoxy)phenylhydrazone (FCCP) (2 μM) to uncouple ATP synthesis, rotenone (100 nM) to block complex I, and antimycin A (1 μM) (Sigma-Aldrich) to block complex III. Oxygen consumption rate (OCR) was analyzed using Wave Desktop software (Agilent Technologies).
IL-4 stimulation polarizes macrophages toward a proresolving macrophage and elicits increased (3-oxidation and oxidative phosphorylation. In hepatocytes and skeletal muscle cells, lipin-1 promotes β-oxidation and oxidative phosphorylation. The inventors wanted to investigate if lipin-1 promoted oxidative phosphorylation in macrophages in response to IL-4. The inventors used BMDMs from lipin-1^mEnzyKO (EKO), lipin-1^mKO (KO), and littermate controls (wild type [WT]) to determine the contribution of the enzymatic activity and infer the contribution of the transcriptional coregulatory activity toward induction of oxidative phosphorylation. BMDMs from EKO, KO, and WT mice were stimulated with 40 ng/ml IL-4 for 4 h, and cellular bioenergetics were analyzed by Seahorse extracellular flux analyzer (Agilent Technologies). There were no differences in respiration between unstimulated WT and EKO macrophages (FIGS. 1 and 3). […] The inventors next tested if lipin-1 transcriptional coregulatory activity contributes to oxidative metabolism in macrophages. WT and lipin-1 KO macrophages were stimulated with IL-4 for 4 h, and cellular bioenergetics were analyzed. There was no difference in respiration between unstimulated WT and lipin-1 KO BMDMs (FIGS. 4 and 6).

BMDMs [2] = assay: IL-4 mediated wound-healing gene expression, qRT-PCR; settings: 20 ng/ml IL-4 for 4 h
Procedure: Bone marrow-derived macrophages were treated with IL-4 (R&D Biosystems, 404-ML-050) for 4 h and mRNA was extracted from the cultured cells using RNeasy Mini Kit (Qiagen—74106) as per manufacturer's instructions. cDNA template was generated using qScript cDNA SuperMix (Quantabio, 95048). qRT-PCR was performed in a Biorad iCycler with SsoAdvanced Universal SYBER Green SuperMix (Biorad, 172-5271). Primers (FIG. 42) were obtained from the Harvard primer bank database. Primer specificity was confirmed using primer BLAST and by verifying the presence of a single peak in melt curve analysis. Results were expressed as fold change relative to IL-4 treated WT cells by 2^−ΔΔCt method after normalizing with GAPDH.
Pro-inflammatory response in macrophages is influenced by lipin-1, but if lipin-1 contributes to wound healing responses by macrophages is unknown. The inventors have previously generated lipin-1^mEnzyKO mice that express a truncated lipin-1 protein lacking lipin-1 enzymatic activity but retain transcriptional co-regulatory function in myeloid cells. […] BMDMs from lipin-1^mEnzyKO, lipin-1^mKO, and appropriate littermate controls were stimulated with 20 ng/ml of IL-4 for 4 h. mRNA was isolated and analyzed for the expression of several canonical wound-healing associated genes: Arg1, Socs2, Ccl17, Mannr, Il10, and Pparg. […]

BMDMs [3] = assay: Phagocytosis assay with pHrodo green zymosan particles; settings: IL-4 stimulated (20 ng/ml, 24 h) lipin-1mKO BMDMs vs wild type BMDMs
Procedure: Bone marrow-derived macrophages (5×10^5 cells) were cultured on sterile coverslips in culture wells and treated with 20 ng/ml IL-4 for 24 h. Culture medium was then replaced with DMEM, containing pHrodo™ green Zymosan A BioParticles® (Thermo Fisher Scientific, P35365) such that each well receives 0.1 mg zymosan particles. BMDMs were allowed to phagocytose for 1 h under dark incubation and then the assay was stopped by cold PBS wash. Cells seeded on coverslips were then fixed using 4% formaldehyde. Cells on cover slips were washed three times and then stained with DAPI slowfade (Invitrogen, S36938). Immunofluorescent images were taken using Olympus BX51 and evaluated using Image J (1.50a) analysis software. Phagocytic efficiency for each image was calculated by dividing the total number of fluorescent beads by the total number of nuclei in the fluorescent image, thus giving average number of beads per cell. Experiment was performed 3 times with 4 random images per group (n=12).
Macrophages with a wound healing phenotype can have increased phagocytic capabilities. The inventors investigated the ability of BMDMs to phagocytize zymosan beads. The inventors mock treated or IL-4 treated BMDMs from lipin-1^mKO or litter mate controls for 24 h. […] The inventors then imaged using fluorescent microscopy and quantified average number of particles per cell.

Substance: IL-4: cytokine IL-4 (R&D Biosystems, 404-ML-050) used to stimulate macrophages; optional component of the claimed composition
- OCR in response to IL-4 stimulation (BMDMs [1]; EKO (lipin-1mEnzyKO) BMDMs, 40 ng/ml IL-4 for 4 h): equivalent increase in OCR
- OCR in response to IL-4 stimulation (BMDMs [1]; WT BMDMs, 40 ng/ml IL-4 for 4 h): increased OCR
- OCR in response to IL-4 stimulation (BMDMs [1]; lipin-1 KO BMDMs, IL-4 for 4 h): failed to increase OCR
- expression of IL-4 elicited genes (BMDMs [2]; lipin-1mEnzyKO BMDMs vs WT BMDMs): equivalent expression
- IL-4 elicited gene expression (Arg1, Socs2, Ccl17, Mannr, Il10, Pparg) (BMDMs [2]; lipin-1mKO BMDMs vs wild type or lipin-1mEnzyKO): significantly lower
- zymosan particles per cell (BMDMs [3]): fewer particles per cell
